{"source": "patent US20260297060A1", "about": "“COMPOUNDS FOR THE DEGRADATION OF MUTANT BRAF” (C4 THERAPEUTICS, INC., priority 2023, published 2026)", "key": {"BRAF V600E": {"target": "T1, BRAF V600E (Homo sapiens, UniProt P15056+Q96SW2, V600E)", "T1 construct": "knock-in of the HiBiT tag to the endogenous BRAF V600E locus; host or cells: A375.10 (A375 clonal line, CRISPR HiBiT knock-in at the endogenous BRAF V600E locus)", "T1 sequence (P15056 whole entry V600E)": "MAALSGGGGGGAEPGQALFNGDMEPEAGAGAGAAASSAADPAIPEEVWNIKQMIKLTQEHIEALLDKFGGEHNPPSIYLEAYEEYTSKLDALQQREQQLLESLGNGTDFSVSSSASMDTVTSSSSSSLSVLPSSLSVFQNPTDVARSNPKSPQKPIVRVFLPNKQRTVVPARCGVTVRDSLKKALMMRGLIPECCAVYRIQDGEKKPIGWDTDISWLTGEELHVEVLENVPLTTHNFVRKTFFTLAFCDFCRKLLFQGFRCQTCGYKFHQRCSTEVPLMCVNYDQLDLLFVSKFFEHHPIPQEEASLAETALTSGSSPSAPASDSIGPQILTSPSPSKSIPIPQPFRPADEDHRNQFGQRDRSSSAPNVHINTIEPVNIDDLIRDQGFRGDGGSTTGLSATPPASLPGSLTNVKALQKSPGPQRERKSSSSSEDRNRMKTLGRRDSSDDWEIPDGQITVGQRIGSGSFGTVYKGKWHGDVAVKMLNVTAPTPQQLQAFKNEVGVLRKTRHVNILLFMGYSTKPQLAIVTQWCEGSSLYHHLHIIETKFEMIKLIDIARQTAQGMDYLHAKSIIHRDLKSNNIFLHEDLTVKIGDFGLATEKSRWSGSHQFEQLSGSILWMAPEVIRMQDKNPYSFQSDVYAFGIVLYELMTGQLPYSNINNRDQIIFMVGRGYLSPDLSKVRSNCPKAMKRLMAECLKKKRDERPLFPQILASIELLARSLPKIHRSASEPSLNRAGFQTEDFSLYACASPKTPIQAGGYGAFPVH", "T1 sequence (Q96SW2 whole entry)": "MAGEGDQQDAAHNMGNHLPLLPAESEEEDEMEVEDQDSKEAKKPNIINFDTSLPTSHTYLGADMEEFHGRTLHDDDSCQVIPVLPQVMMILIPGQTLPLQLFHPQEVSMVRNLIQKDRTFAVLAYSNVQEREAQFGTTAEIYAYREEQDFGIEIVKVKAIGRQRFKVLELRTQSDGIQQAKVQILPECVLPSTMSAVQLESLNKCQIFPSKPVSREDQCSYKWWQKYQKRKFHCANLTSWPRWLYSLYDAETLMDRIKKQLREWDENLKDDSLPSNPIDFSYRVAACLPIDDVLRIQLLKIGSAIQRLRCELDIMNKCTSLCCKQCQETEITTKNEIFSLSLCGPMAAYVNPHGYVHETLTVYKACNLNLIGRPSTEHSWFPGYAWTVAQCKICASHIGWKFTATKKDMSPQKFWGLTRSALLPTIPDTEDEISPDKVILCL", "T1 sequence (Q16531 whole entry partner)": "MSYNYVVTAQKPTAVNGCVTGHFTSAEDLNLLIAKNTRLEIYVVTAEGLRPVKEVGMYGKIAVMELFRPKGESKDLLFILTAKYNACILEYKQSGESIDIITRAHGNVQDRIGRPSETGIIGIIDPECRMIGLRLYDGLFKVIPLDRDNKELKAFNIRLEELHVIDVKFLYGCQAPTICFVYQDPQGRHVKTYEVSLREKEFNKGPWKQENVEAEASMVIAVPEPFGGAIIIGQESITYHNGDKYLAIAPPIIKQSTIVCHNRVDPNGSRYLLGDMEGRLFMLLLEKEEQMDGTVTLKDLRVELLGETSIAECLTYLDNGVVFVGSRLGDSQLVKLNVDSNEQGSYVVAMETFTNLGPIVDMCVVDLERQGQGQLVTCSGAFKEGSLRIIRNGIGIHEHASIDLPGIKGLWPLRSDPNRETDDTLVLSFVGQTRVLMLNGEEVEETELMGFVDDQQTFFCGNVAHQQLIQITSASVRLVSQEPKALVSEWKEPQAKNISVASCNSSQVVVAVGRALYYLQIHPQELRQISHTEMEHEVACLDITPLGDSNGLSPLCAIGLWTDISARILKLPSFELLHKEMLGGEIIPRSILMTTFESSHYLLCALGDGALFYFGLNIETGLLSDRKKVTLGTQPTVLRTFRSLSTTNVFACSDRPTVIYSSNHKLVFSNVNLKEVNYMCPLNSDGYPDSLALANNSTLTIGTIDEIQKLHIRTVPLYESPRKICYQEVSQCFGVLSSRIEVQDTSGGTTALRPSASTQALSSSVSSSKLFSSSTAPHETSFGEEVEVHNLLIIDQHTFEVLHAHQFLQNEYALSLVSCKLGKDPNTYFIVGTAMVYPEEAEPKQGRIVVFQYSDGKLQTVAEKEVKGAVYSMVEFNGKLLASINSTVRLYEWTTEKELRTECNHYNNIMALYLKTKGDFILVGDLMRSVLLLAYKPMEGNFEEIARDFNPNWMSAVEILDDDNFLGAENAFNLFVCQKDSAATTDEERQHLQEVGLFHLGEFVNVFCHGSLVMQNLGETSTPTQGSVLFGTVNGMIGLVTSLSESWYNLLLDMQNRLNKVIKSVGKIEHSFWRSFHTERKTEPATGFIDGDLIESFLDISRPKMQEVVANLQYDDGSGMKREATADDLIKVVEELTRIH", "test": "BRAF V600E HiBiT Degradation Assay", "assay_type": "cell-based", "settings": "A375.10 cells, BRAF V600E", "outline": "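Endogenous HiBiT knock-in on BRAF V600E in A375 cells (clone A375.10); 11-point half-log series, top 10 μM, 2, 6 or 24 h at 37° C. Lytic HiBiT luminescence, background-subtracted, normalized to DMSO; 4-parameter fit gives DC50, Emax (residual protein) and IP (inflection point).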"}, "A375-NRAS^Q61K cells": {"tested_on": "A375-NRAS^Q61K cells", "test": "CTGlo Cell Viability Assay, A375-NRAS^Q61K (A375.11) cells, 96 hours", "assay_type": "cell-based, human", "settings": "A375.11 (A375-NRAS^Q61K) cells; for Emax / CTGlo A375.11 96 hours Emax: lowest % viability achieved", "outline": "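Viability as CellTiter-Glo ATP luminescence after 96 h compound exposure at 37 °C; A375.11 (BRAF V600E/NRAS Q61K) cells at 250/well, top final concentration 10 μM in half-log steps. Signal was background-corrected and set relative to DMSO controls. A 4-parameter logistic fit gave GI50 (50% crossing) and Emax.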"}, "[1]": {"settings": "2 hours, inflection point, read-out: HiBiT-Degradation A375.10 BRAF 2 hours IP"}, "[2]": {"settings": "2 hours, read-out: HiBiT-Degradation A375.10 BRAF 2 hours DC50"}, "[3]": {"settings": "2 hours, residual protein remaining, read-out: HiBiT-Degradation A375.10 BRAF 2 hours Emax"}, "[4]": {"settings": "2 hours, residual protein remaining"}}, "note": "Where two headings read alike, the source gives them in different places."}
{"smiles": "Cn1nc(N2CCC(=O)NC2=O)c2cc(F)c([C@H]3CC[C@@H](N4CCC5(CC4)CC(c4cnc6ccc(Oc7c(F)ccc(NS(=O)(=O)N8CC[C@@H](F)C8)c7C#N)cc6n4)C5)CC3)cc21", "note": "(single isomer, unassigned) [Compound 268]", "values": [{"measurement": "DC50", "setting": "BRAF V600E; [1]", "value": "< 1000", "unit": "nM"}, {"measurement": "DC50", "setting": "BRAF V600E; [2]", "value": "< 1000", "unit": "nM"}, {"measurement": "Emax", "setting": "BRAF V600E; [3]", "value": "< 50", "unit": "%"}, {"measurement": "GI50", "setting": "A375-NRAS^Q61K cells; Homo sapiens, 96 h", "value": "< 1000", "unit": "nM"}, {"measurement": "Emax", "setting": "A375-NRAS^Q61K cells; Homo sapiens, 96 h", "value": "< 50", "unit": "%"}]}
{"smiles": "CCN(C)S(=O)(=O)Nc1ccc(F)c(Oc2ccc3ncn([C@@H]4COC5(C4)CN(C4CC6(C4)CN(c4cc7c(cc4F)c(N4CCC(=O)NC4=O)nn7C)C6)C5)c(=O)c3c2)c1C#N", "note": "[Compound 311, (7S)-7-[6-[2-cyano-3-[[ethyl(methyl)sulfamoyl]amino]-6-fluoro-phenoxy]-4-oxo-quinazolin-3-yl]-2-[2-[3-(2,4-dioxohexahydropyrimidin-1-yl)-5-fluoro-1-methyl-indazol-6-yl]-2-azaspiro[3.3]heptan-6-yl]-5-oxa-2-azaspiro[3.4]octane]", "values": [{"measurement": "DC50", "setting": "BRAF V600E; [1]", "value": "< 1000", "unit": "nM"}, {"measurement": "DC50", "setting": "BRAF V600E; [2]", "value": "1000 to 10000", "unit": "nM"}, {"measurement": "Emax", "setting": "BRAF V600E; [3]", "value": "50 to 90", "unit": "%"}, {"measurement": "DC50", "setting": "BRAF V600E; HiBiT, 24 hours, read-out: HiBiT-Degradation A375.10 BRAF 24 hours DC50", "value": "< 1000", "unit": "nM"}, {"measurement": "Emax", "setting": "BRAF V600E; HiBiT, 24 hours, read-out: HiBiT-Degradation A375.10 BRAF 24 hours Emax", "value": "< 50", "unit": "%"}, {"measurement": "DC50", "setting": "BRAF V600E; HiBiT, 24 hours, read-out: HiBiT-Degradation A375.10 BRAF 24 hours IP", "value": "< 1000", "unit": "nM"}, {"measurement": "GI50", "setting": "A375-NRAS^Q61K cells; Homo sapiens, 96 h", "value": "1000 to 10000", "unit": "nM"}, {"measurement": "Emax", "setting": "A375-NRAS^Q61K cells; Homo sapiens, 96 h", "value": "50 to 90", "unit": "%"}]}
{"smiles": "CCN(C)S(=O)(=O)Nc1ccc(F)c(Oc2ccc3ncn([C@@H]4CO[C@]5(CCN(C6CCC(c7cc8c(cc7F)c(N7CCC(=O)NC7=O)nn8C)CC6)C5)C4)c(=O)c3c2)c1C#N", "note": "(single isomer, unassigned) [Compound 290]", "values": [{"measurement": "DC50", "setting": "BRAF V600E; [1]", "value": "< 1000", "unit": "nM"}, {"measurement": "DC50", "setting": "BRAF V600E; [2]", "value": "1000 to 10000", "unit": "nM"}, {"measurement": "Emax", "setting": "BRAF V600E; [3]", "value": "50 to 90", "unit": "%"}, {"measurement": "GI50", "setting": "A375-NRAS^Q61K cells", "value": "> 10000", "unit": "nM"}, {"measurement": "CTGlo A375.11 96 hours Emax", "setting": "A375-NRAS^Q61K cells", "value": "** (<90% and >50%)"}]}
{"smiles": "CCN(C)S(=O)(=O)Nc1ccc(F)c(Oc2ccc3ncn(C4CC5(CCN(C6CCC(c7ccc(NC8CCC(=O)NC8=O)cc7F)CC6)CC5)C4)c(=O)c3c2)c1F", "note": "(single isomer, unassigned) [Compound 167, 3-[7-[4-[4-[(2,6-dioxo-3-piperidyl)amino]-2-fluoro-phenyl]cyclohexyl]-7-azaspiro[3.5]nonan-2-yl]-6-[3-[[ethyl(methyl)sulfamoyl]amino]-2,6-difluoro-phenoxy]-4-oxo-quinazoline]", "values": [{"measurement": "DC50", "setting": "BRAF V600E; [1]", "value": "< 1000", "unit": "nM"}, {"measurement": "DC50", "setting": "BRAF V600E; [2]", "value": "> 10000", "unit": "nM"}, {"measurement": "HiBiT-Degradation A375.10 BRAF 2 hours Emax", "setting": "BRAF V600E; [4]", "value": "** (<90% and >50%)"}, {"measurement": "GI50", "setting": "A375-NRAS^Q61K cells", "value": "1000 to 10000", "unit": "nM"}, {"measurement": "CTGlo A375.11 96 hours Emax", "setting": "A375-NRAS^Q61K cells", "value": "** (<90% and >50%)"}]}
{"smiles": "CN(CCO)S(=O)(=O)Nc1ccc(F)c(Oc2ccc3ncc(C4CC5(C4)CN(C4CCC(c6cc7c(cc6F)c(N6CCC(=O)NC6=O)nn7C)CC4)C5)nc3c2)c1C#N", "note": "(single isomer, unassigned) [Compound 321, 7-[2-cyano-6-fluoro-3-[[2-hydroxyethyl(methyl)sulfamoyl]amino]phenoxy]-2-[2-[4-[3-(2,4-dioxohexahydropyrimidin-1-yl)-5-fluoro-1-methyl-indazol-6-yl]cyclohexyl]-2-azaspiro[3.3]heptan-6-yl]quinoxaline]", "values": [{"measurement": "DC50", "setting": "BRAF V600E; [1]", "value": "< 1000", "unit": "nM"}, {"measurement": "DC50", "setting": "BRAF V600E; [2]", "value": "1000 to 10000", "unit": "nM"}, {"measurement": "HiBiT-Degradation A375.10 BRAF 2 hours Emax", "setting": "BRAF V600E; [4]", "value": "* (>=90%)"}, {"measurement": "GI50", "setting": "A375-NRAS^Q61K cells; Homo sapiens, 96 h", "value": "> 10000", "unit": "nM"}, {"measurement": "Emax", "setting": "A375-NRAS^Q61K cells; Homo sapiens, 96 h", "value": "50 to 90", "unit": "%"}]}
{"smiles": "CCN(C)S(=O)(=O)Nc1ccc(F)c(Oc2ccc3ncn([C@@H]4CO[C@@]5(CCN(C6CCC(c7cc8c(cc7F)c(N7CCC(=O)NC7=O)nn8C)CC6)C5)C4)c(=O)c3c2)c1C#N", "note": "(single isomer, unassigned) [Compound 286]", "values": [{"measurement": "DC50", "setting": "BRAF V600E; [1]", "value": "< 1000", "unit": "nM"}, {"measurement": "DC50", "setting": "BRAF V600E; [2]", "value": "< 1000", "unit": "nM"}, {"measurement": "Emax", "setting": "BRAF V600E; [3]", "value": "< 50", "unit": "%"}, {"measurement": "HiBiT-Degradation A375.10 BRAF 24 hours Emax", "setting": "BRAF V600E; HiBiT, 24 hours", "value": "*** (<=50%)"}, {"measurement": "GI50", "setting": "A375-NRAS^Q61K cells; Homo sapiens, 96 h", "value": "< 1000", "unit": "nM"}, {"measurement": "Emax", "setting": "A375-NRAS^Q61K cells; Homo sapiens, 96 h", "value": "< 50", "unit": "%"}]}
{"smiles": "CCN(C)S(=O)(=O)Nc1ccc(F)c(Oc2ccc3ncc(OCC4(F)CCN(C5CCC(c6cc7c(cc6F)c(N6CCC(=O)NC6=O)nn7C)CC5)CC4)nc3c2)c1C#N", "note": "(single isomer, unassigned) [Compound 229, 7-[2-cyano-3-[[ethyl(methyl)sulfamoyl]amino]-6-fluoro-phenoxy]-2-[[1-[4-[3-(2,4-dioxohexahydropyrimidin-1-yl)-5-fluoro-1-methyl-indazol-6-yl]cyclohexyl]-4-fluoro-4-piperidyl]methoxy]quinoxaline]", "values": [{"measurement": "DC50", "setting": "BRAF V600E; [1]", "value": "< 1000", "unit": "nM"}, {"measurement": "DC50", "setting": "BRAF V600E; [2]", "value": "< 1000", "unit": "nM"}, {"measurement": "HiBiT-Degradation A375.10 BRAF 2 hours Emax", "setting": "BRAF V600E; [4]", "value": "*** (<=50%)"}, {"measurement": "GI50", "setting": "A375-NRAS^Q61K cells", "value": "< 1000", "unit": "nM"}, {"measurement": "CTGlo A375.11 96 hours Emax", "setting": "A375-NRAS^Q61K cells", "value": "** (<90% and >50%)"}]}
